Data: patent US12275731B2, “Azaindole inhibitors of wild-type and mutant forms of LRRK2” (DANA-FARBER CANCER INSTITUTE, INC., priority 2018, dated 2025)

Key:
Test in all cases: KinomeScan profiling
Assay type in all cases: binding
PIK3CG = biological target: T1, PIK3CG (Homo sapiens, UniProt P48736); settings: read-out: % control
T1 construct: purchased KinomeScan® (panel service)
Outline: (§1)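 Single-point competition binding screen: 1 μM, DMSO, 468 kinases. Results reported as % control from RLU, normalised to DMSO and positive-control wells. Activity threshold: <35% control.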

PIP5K2B = biological target: T2, PIP5K2B (Homo sapiens, UniProt P78356); settings: read-out: % control
T2 construct: purchased KinomeScan® (panel service)
T2 sequence (P78356 1-416): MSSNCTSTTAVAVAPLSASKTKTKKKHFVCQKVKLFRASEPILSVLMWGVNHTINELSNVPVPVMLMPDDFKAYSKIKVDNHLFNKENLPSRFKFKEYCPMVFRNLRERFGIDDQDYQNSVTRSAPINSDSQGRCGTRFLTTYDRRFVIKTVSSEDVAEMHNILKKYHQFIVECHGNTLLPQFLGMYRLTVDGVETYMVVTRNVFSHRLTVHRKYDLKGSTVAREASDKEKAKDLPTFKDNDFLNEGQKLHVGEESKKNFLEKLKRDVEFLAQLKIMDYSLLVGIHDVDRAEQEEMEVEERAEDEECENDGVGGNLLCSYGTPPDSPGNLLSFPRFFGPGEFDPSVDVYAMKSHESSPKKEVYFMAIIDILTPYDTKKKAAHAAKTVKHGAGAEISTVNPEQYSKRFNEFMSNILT
Outline: as §1

CAMK2G = CAMK2G (Homo sapiens, UniProt Q13555); settings: read-out: % control
Outline: as §1

MST1 = biological target: T3, MST1 (Homo sapiens, UniProt Q13043); settings: MST1, 1 μM; read-out: % control
T3 sequence (Q13043 1-487): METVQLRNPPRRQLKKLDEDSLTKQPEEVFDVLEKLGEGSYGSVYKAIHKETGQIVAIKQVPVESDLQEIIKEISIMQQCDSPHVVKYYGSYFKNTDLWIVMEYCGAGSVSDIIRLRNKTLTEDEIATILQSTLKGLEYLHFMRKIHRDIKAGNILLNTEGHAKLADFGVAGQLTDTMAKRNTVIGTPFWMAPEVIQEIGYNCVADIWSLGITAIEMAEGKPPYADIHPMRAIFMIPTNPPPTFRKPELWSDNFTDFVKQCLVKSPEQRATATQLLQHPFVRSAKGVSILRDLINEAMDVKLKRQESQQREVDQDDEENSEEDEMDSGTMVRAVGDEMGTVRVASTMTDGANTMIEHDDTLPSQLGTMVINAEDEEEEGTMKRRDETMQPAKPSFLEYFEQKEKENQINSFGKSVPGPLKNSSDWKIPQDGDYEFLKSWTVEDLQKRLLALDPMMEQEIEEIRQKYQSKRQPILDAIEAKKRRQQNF
Outline: as §1

MEK4 = biological target: T4, MEK4 (Homo sapiens, UniProt P45985); settings: MEK4, 1 μM; read-out: % control
T4 sequence (P45985 1-399): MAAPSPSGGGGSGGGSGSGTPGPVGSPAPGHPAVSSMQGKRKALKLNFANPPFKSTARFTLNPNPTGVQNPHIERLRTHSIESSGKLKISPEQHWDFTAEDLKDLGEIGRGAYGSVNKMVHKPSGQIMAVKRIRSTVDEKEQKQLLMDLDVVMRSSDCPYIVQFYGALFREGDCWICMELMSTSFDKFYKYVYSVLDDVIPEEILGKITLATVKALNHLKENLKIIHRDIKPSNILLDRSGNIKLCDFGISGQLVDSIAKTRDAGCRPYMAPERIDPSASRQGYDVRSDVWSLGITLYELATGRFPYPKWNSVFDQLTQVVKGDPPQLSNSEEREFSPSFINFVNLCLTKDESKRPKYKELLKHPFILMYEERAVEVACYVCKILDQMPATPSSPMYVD
Outline: as §1

PAK1 = PAK1 (Homo sapiens, UniProt Q13153); settings: PAK1, 1 μM; read-out: % control
Outline: as §1

EGFR(L861Q) = EGFR(L861Q) (Homo sapiens, UniProt P00533, L861Q); settings: read-out: % control
Outline: as §1

HPK1 = HPK1 (Homo sapiens, UniProt Q92918); settings: HPK1, 1 μM; read-out: % control
Outline: as §1

PKN2 = PKN2 (Homo sapiens, UniProt Q16513); settings: PKN2, 1 μM; read-out: % control
Outline: as §1

ADCK3 = biological target: T5, ADCK3 (Homo sapiens, UniProt Q8NI60); settings: ADCK3, 1 μM; read-out: % control
T5 construct: purchased KinomeScan®
Outline: as §1

PIM2 = biological target: T6, PIM2 (Homo sapiens, UniProt Q9P1W9); settings: PIM2, 1 μM; read-out: % control
T6 construct: purchased KinomeScan® (panel service)
Outline: as §1

IGF1R = IGF1R (Homo sapiens, UniProt P08069); settings: read-out: % control
Outline: as §1

Sequence of IGF1R (P08069 31-1367): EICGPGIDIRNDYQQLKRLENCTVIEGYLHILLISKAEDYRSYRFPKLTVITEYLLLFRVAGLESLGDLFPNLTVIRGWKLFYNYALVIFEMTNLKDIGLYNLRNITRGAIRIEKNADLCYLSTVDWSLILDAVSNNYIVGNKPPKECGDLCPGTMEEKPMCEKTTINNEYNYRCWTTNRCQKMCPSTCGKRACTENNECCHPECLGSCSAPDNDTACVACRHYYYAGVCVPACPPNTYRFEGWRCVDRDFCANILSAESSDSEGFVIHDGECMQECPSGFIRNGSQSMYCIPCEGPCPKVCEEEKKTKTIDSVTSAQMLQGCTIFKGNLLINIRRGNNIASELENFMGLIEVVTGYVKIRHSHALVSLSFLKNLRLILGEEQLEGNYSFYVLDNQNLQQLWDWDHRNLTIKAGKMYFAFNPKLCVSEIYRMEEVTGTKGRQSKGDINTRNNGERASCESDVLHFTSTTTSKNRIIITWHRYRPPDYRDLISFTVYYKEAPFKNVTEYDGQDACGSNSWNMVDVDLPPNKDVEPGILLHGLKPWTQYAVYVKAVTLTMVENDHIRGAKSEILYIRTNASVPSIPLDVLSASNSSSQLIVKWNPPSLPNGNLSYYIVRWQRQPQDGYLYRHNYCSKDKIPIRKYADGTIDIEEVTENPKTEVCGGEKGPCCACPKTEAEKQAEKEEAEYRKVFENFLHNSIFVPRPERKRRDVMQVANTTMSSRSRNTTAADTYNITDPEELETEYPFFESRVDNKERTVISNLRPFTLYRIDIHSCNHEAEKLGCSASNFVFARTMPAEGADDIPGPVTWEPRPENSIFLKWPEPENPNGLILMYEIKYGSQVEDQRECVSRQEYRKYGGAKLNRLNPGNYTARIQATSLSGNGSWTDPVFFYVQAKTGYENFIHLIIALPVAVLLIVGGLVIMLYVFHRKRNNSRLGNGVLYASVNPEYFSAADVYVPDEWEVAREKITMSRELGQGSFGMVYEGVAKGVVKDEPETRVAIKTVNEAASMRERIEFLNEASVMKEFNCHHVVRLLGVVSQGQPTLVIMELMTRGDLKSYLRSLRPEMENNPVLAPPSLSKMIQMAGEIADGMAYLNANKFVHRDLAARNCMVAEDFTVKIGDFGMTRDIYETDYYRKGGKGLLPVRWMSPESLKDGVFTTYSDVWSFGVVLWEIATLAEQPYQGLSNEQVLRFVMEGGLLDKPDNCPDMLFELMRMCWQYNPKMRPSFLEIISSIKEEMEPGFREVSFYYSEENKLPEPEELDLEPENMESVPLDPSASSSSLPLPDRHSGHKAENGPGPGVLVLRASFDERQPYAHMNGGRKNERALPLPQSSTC
Sequence of EGFR(L861Q) (P00533 25-1210 L861Q): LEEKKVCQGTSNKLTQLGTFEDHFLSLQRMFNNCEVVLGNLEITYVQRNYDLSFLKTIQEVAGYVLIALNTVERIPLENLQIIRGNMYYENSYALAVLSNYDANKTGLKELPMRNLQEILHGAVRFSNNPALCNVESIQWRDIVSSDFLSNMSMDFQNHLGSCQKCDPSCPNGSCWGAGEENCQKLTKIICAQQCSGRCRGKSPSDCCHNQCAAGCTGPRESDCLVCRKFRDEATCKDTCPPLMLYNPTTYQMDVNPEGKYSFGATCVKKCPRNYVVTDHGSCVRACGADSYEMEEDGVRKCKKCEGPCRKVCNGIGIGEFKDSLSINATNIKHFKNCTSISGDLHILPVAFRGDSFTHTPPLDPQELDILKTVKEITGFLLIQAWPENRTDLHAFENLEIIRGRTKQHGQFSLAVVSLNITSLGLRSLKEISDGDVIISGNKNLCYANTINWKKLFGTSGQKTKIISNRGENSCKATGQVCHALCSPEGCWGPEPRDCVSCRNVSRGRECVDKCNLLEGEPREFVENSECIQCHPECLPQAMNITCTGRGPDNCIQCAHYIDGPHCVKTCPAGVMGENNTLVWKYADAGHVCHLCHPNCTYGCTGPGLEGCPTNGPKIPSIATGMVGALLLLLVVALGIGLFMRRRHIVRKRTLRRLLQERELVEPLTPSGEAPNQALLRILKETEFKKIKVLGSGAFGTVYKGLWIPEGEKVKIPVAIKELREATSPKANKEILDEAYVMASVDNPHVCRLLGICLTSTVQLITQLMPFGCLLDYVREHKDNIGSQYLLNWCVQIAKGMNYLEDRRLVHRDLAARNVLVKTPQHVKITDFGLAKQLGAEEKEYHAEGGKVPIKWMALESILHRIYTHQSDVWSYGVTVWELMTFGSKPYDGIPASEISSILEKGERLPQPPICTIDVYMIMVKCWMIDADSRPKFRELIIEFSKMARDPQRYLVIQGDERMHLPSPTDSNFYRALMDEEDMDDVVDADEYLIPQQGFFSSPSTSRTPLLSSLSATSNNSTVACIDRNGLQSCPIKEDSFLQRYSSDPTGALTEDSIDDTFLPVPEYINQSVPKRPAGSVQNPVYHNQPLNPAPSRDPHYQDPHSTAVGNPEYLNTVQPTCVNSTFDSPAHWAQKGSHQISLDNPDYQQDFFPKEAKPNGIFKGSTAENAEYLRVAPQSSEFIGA
Sequence of PKN2 (Q16513 whole entry): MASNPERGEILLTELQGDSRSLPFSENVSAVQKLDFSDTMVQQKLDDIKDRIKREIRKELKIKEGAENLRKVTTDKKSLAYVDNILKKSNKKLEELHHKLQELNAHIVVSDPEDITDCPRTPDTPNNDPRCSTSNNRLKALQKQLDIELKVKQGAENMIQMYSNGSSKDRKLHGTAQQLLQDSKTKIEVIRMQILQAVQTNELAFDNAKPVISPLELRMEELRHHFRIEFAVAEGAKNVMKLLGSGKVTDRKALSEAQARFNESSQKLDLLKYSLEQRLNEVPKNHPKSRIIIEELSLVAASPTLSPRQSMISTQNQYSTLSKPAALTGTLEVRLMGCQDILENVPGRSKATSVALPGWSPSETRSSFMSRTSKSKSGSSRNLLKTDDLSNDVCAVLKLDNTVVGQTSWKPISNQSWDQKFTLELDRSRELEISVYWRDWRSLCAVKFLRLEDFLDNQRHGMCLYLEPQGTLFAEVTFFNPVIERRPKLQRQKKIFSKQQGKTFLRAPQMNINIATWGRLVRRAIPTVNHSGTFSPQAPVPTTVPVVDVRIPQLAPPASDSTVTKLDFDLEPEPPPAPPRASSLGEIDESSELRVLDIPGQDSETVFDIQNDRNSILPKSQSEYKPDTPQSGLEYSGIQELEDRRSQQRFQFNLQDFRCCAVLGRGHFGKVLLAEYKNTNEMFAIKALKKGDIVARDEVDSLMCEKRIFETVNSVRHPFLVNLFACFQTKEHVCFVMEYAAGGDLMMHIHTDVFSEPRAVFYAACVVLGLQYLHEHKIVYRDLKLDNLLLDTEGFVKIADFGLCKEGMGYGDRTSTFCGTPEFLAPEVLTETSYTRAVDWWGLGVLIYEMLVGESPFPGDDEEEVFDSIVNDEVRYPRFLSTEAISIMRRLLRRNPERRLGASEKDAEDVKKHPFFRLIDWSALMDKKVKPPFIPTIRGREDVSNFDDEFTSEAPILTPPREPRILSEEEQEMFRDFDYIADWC
Sequence of HPK1 (Q92918 whole entry): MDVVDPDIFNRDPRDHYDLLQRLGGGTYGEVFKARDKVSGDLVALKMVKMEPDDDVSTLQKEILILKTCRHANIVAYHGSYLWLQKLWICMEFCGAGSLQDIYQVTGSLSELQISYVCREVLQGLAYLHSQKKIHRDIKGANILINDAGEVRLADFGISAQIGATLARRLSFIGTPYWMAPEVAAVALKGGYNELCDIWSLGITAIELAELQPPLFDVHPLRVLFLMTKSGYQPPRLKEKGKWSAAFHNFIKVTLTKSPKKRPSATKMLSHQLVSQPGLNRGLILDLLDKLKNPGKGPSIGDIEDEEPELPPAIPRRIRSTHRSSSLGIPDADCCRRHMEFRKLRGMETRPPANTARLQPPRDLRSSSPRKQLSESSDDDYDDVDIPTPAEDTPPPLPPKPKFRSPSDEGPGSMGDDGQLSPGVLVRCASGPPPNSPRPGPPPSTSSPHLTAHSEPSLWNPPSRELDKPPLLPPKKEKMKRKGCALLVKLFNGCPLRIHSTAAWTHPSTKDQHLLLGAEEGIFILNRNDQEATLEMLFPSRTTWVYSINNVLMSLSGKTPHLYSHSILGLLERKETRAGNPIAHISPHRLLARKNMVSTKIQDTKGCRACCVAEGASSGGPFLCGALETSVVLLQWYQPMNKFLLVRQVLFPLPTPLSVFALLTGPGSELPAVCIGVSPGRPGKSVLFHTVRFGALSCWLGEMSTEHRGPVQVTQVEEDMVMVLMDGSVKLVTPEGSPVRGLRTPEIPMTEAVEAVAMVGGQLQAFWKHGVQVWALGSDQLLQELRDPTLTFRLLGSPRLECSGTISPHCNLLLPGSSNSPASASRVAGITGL
T6 sequence (Q9P1W9 whole entry): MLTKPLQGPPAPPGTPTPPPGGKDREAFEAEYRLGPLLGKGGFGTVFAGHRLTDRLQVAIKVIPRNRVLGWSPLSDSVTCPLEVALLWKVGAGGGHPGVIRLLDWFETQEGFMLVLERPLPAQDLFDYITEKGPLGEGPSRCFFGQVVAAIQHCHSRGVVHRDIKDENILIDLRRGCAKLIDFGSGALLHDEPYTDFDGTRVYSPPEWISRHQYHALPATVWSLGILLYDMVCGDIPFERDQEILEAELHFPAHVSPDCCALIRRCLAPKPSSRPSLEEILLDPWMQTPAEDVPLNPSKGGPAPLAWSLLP

SMILES	remaining binding at 1 µM (PIK3CG)	remaining binding at 1 µM (PIP5K2B)	remaining binding at 1 µM (CAMK2G)	remaining binding at 1 µM (MST1)	remaining binding at 1 µM (MEK4)	remaining binding at 1 µM (PAK1)	remaining binding at 1 µM (EGFR(L861Q))	remaining binding at 1 µM (HPK1)	remaining binding at 1 µM (PKN2)	remaining binding at 1 µM (ADCK3)	remaining binding at 1 µM (PIM2)	remaining binding at 1 µM (IGF1R)
CNc1c(-c2cnn([C@H]3CCN(C(C)=O)C[C@@H]3F)c2)cnc2[nH]cc(Cl)c12 [Compound 77, 1-((3S,4S)-4-(4-(3-chloro-4-(methylamino)-1H-pyrrolo[2,3-b]pyridin-5-yl)-1H-pyrazol-1-yl)-3-fluoropiperidin-1-yl)ethan-1-one]	99%	3.4%	90%	93%	45%	99%	96%	6.7%	51%	100%	100%	91%
CNc1c(-c2ccc(C(=O)N3CCC(N4CCOCC4)CC3)cc2)cnc2[nH]cc(Cl)c12 [Compound 96, (4-(3-chloro-4-(methylamino)-1H-pyrrolo[2,3-b]pyridin-5-yl)phenyl)(4-morpholinopiperidin-1-yl)methanone]	100%	4.9%	95%	81%	7.3%	99%	90%	84%	87%	100%	100%	100%
O=C(c1ccc(-c2cnc3[nH]cc(Cl)c3c2NC2CCCC2)cc1)N1CCC(N2CCOCC2)CC1 [Compound 101, (4-(3-chloro-4-(cyclopentylamino)-1H-pyrrolo[2,3-b]pyridin-5-yl)phenyl)(4-morpholinopiperidin-1-yl)methanone]	95%	12%	96%	82%	28%	100%	89%	53%	75%	68%	94%	86%
